According to patent US20070207975A1, “Materials and methods for treating and preventing Her-2/neu overexpressing, FAS-elevated cancer cells” (EVANSTON NORTHWESTERN HEALTHCARE, priority 2006, published 2007):

How the values were obtained:
p185^Her-2/neu = assay: Flow cytometric analysis of cell surface-associated p185Her-2/neu; type: cell-based, human; details: scavenger of reactive oxygen species added to OA treatment
Description: FIG. 1. […] FIG. 2. […] The amount of cell surface-associated p185^Her-2/neu was quantified by flow cytometric analyses using a specific antibody against the extracellular domain of p185^Her-2/neu (Ab-5), as described herein. The mean fluorescence signal±SD (n=3) was quantified using the geo mean fluorescence (GM) parameter provided with the Cell Quest Software (Becton Dickinson). […] After labeling, cells were washed thoroughly, and localization of p185^Her-2/neu was detected by indirect immunofluorescence by incubating with FITC-conjugated anti-mouse IgG. After counterstaining with DAPI, cells were examined and photographed using a Zeiss fluorescent microscope equipped with a built-in camera. […] Before experiments, cells were serum-starved overnight and then cultured in IMEM containing 0.1% FBS in the absence or presence of GLA (Sigma Chemical Co., St. Louis, Mo.). GLA was prepared at a concentration of 1 mg/mL in ethanol and was added to a final concentration of 0, 5, 10, or 20 μg/mL; an equal volume of ethanol was added to control cells. […] A) Cell surface expression of Her-2/neu protein in BT-474 and SK-Br3 cells was determined by flow cytometry using a mouse anti-Her-2/neu antibody directed against the extracellular domain of the p185^Her-2/neu oncoprotein (clone Ab-5; Oncogene Research Products; San Diego, Calif.). Briefly, after GLA or control treatment, cells were washed, harvested, resuspended in phosphate-buffered saline (PBS) containing 1% FBS, and incubated with 5 μg/mL Ab-5 antibody for 1 hour at 4° C. The cells were washed again and then incubated with a fluorescein isothiocyanate (FITC)-conjugated anti-mouse IgG secondary antibody (Jackson ImnunoResearch Laboratories, West Grove, Pa.) diluted 1:200 in cold PBS containing 1% FBS for 45 minutes at 4° C. The cells were washed once more in cold PBS, and flow cytometric analysis was performed with a FACScalibur flow cytometer (Becton Dickinson, San Diego, Calif.) equipped with Cell Quest Software (Becton Dickinson). […] As a control for nonspecific immunofluorescence, cells were stained with the secondary antibody alone (solid black line). The mean fluorescence signal associated with cells for labeled p185^Her-2/neu was quantified using the Geo Mean (GM) fluorescence parameter provided with the software. […] B) Immunoblot analysis of Her-2/neu and PEA3 proteins in control- and GLA-treated BT-474 and SK-Br3 cells. […] Immunoreactive bands were detected by enhanced chemiluminescence reagent (Pierce, Rockford, Ill.). Blots were reprobed with an anti-β-actin goat polyclonal antibody (Santa Cruz Biotechnology) to control for protein loading and transfer. Densitometric values of protein bands were quantified using Scion Imaging Software (Scion Corp., Frederick, Md.).

Lipogenic Cells = assay: Effect of fatty acids, lipogenic cells (Table 2); type: cell-based
Breast Cancer Cells = assay: Effect of fatty acids, breast cancer cells (Table 2); type: cell-based; details: FAS named only for oleic acid

| Compound | prevention of OA-induced suppression of Her-2/neu overexpression (p185^Her-2/neu) | Effect of Fatty Acids: Lipogenic Cells (Lipogenic Cells) | Effect of Fatty Acids: Breast Cancer Cells (Breast Cancer Cells) |
| --- | --- | --- | --- |
| Cc1c(C)c2c(c(C)c1O)CCC(C)(CCCC(C)CCCC(C)CCCC(C)C)O2 (racemic) [vitamin E, dl-α-tocopherol, reference compound] | not significantly prevented | – | – |
| CCC=CCC=CCC=CCCCCCCCC(=O)O [ω-3 Alpha-Linolenic acid, 9,12,15-octadecatrienoic acid] | – | No effect | Potent Down-regulator |
| CCC=CCC=CCC=CCC=CCC=CCC=CCCC(=O)O [ω-3 Docosahexaenoic acid, 4,7,10,13,16,19-docosahexaenoic acid, reference compound] | – | No effect | Weak Down-regulator |
| CCC=CCC=CCC=CCC=CCC=CCCCC(=O)O [ω-3 Eicosapentaenoic acid, 5,8,11,14,17-eicosapentaenoic acid, reference compound] | – | Down-regulator | No effect |
| CCCCCC=CCC=CCCCCCCCC(=O)O [ω-6 Linoleic acid, 9,12-octadecadienoic acid, reference compound] | – | Potent | No effect |
